Test results published in PMC7395068, “The evolution of strategies to minimise the risk of human drug-induced liver injury (DILI) in drug discovery and development” (Archives of Toxicology, 2020).
Read-outs that look alike come from different tables or passages of the source.

Key:
[1] = system: HepG2 cells; settings: cited from earlier work
[2] = system: human hepatocytes; settings: In vitro Assay; ref Xu 2008; cited from earlier work
[3] = cited from earlier work
[4] = system: HepG2 cells; settings: cited from earlier work; remark: listed apart in the source
[5] = system: isolated mouse liver mitochondria; settings: In vitro Assay; ref Porceddu 2012; cited from earlier work
[6] = system: hLiMTs; experiment: Combined HCI (HCS) and cellular ATP 3D assay in hLiMTs; settings: for AC50 / minimal effective concentration: Homo sapiens
[7] = system: THLE-Null and THLE-3A4 cells; settings: In vitro Assay; ref Gustafsson 2014; cited from earlier work
[8] = system: hLiMTs; settings: cited from earlier work; for hLiMTs ATP <100uM: In vitro Assay, ref Proctor 2017
[9] = system: PHH; settings: cited from earlier work; for PHH ATP <100uM: In vitro Assay, ref Proctor 2017
[10] = system: HepG2 cells; settings: In vitro Assay; ref Persson 2013; cited from earlier work
[11] = system: HepaRG spheroids; experiment: Combined HCI (HCS) and cellular ATP 3D assay in HepaRG spheroids; settings: HepaRG; for AC50 / minimal effective concentration: Homo sapiens
[12] = cited from earlier work; remark: listed apart in the source
[13] = system: HepG2 cells, primary human hepatocytes; settings: In vitro Assay; ref Garside 2014; cited from earlier work
[14] = system: THLE or HepG2 cells, isolated mitochondria, BSEP; settings: cited from earlier work
[15] = ref Chen 2011, cited from earlier work
[16] = system: PHH spheroids; settings: cited from earlier work
[17] = system: HepG2 C3A spheroid, BSEP, Glu/Gal in HepG2 cells, bioactivation; settings: In vitro Assay; ref Williams 2019; cited from earlier work
[18] = In vitro Assay, ref Tolosa 2012
[19] = In vitro Assay, ref O'Brien 2006
[20] = In vitro Assay, ref Vorrink 2018

CC(=O)Nc1cccc(O)c1 [3-acetamidophenol]
Structural based (HCI) [1, 18]: -VE
Structural based (HCI) [2]: -VE
In vivo DILI ([3]; ref O'Brien 2006): -VE
In vivo DILI ([3]; ref Tolosa 2012): -VE
In vivo DILI ([3]; ref Xu 2008): -VE

CCCCc1oc2ccccc2c1C(=O)c1cc(I)c(OCCN(CC)CC)c(I)c1 [amiodarone]
Structural based (HCI) [1, 18]: +VE
Structural based (HCI) [4, 19]: +VE
in vitro data EC20<=2uM [5]: +VE
AC50 ([6]; read-out: ATP endpoint AC50): 5.33 µM
minimal effective concentration ([6]; read-out: ATP endpoint MEC): 4.58 µM
AC50 ([6]; read-out: HCS endpoint AC50): 28.2 µM
minimal effective concentration ([6]; read-out: HCS endpoint MEC): 6.51 µM
hLiMTs <10 uM All ([6]; hLiMTs, all endpoints, cut-off <10 uM): +ve (<10 uM)
THLE-Null [7]: +VE
hLiMTs ATP <100uM [8]: +VE (IC50 threshold of 100 µM)
hLiMTs/100uM, Proctor (2017) ([8]; hLiMTs, ATP, IC50 threshold 100 µM, ref Proctor et al. 2017): +VE (IC50 threshold of 100 µM)
PHH/100uM, Proctor (2017) ([9]; 2D PHH, ATP, IC50 threshold 100 µM, ref Proctor et al. 2017): +VE (IC50 threshold of 100 µM)
PHH ATP <100uM [9]: +VE (IC50 threshold of 100 µM)
Cluser analysis [10]: +VE
Structural based (HCI) [10]: +VE
HepaRG <10 uM All ([11]; all endpoints, cut-off <10 uM): +ve (<10 uM)
AC50 ([11]; read-out: ATP endpoint AC50): 112 µM
minimal effective concentration ([11]; read-out: ATP endpoint MEC): 98.8 µM
AC50 ([11]; read-out: HCS endpoint AC50): 13.1 µM
minimal effective concentration ([11]; read-out: HCS endpoint MEC): 4.62 µM

CN(C)CCC=C1c2ccccc2CCc2ccccc21 [amitriptyline]
Structural based (HCI) [1, 18]: +VE
DILI +VE (5-8), DILI -VE (-4) ([12]; ref Chen 2016): +VE
DILI severity category ([12]; ref Chen 2016): vLess-DILI-Concern
Structural based (HCI) [4, 19]: -VE
Structural based (HCI) [2]: -VE
hLiMTs ATP <100uM [8]: +VE (IC50 threshold of 100 µM)
Cluster 1-6 +VE Assay [13]: +VE
PHH ATP <100uM [9]: +VE (IC50 threshold of 100 µM)
Cluser analysis [10]: +VE
Structural based (HCI) [10]: +VE
In vivo DILI ([3]; […]): +VE
In vivo DILI ([3]; ref Garside 2014): +VE
In vivo DILI ([3]; ref O'Brien 2006): +VE
In vivo DILI ([3]; ref Persson 2013): +VE
In vivo DILI ([3]; ref Proctor 2017): +VE
In vivo DILI ([3]; ref Tolosa 2012): +VE
In vivo DILI ([3]; ref Xu 2008): -VE

CCN(CC)CCCC(C)Nc1ccnc2cc(Cl)ccc12 (centres unmarked) [chloroquine]
Ro2 Hybrid HRM Score [14]: +VE
Structural based (HCI) [1]: +VE
DILI +VE (5-8), DILI -VE (-4) ([12]; in vivo): +VE
DILI severity category ([12]; in vivo): vLess-DILI-Concern
Structural based (HCI) [4]: +VE

C[S+](C)[O-] [dimethyl dulfoxide]
Structural based (HCI) [1, 18]: -VE
Cluser analysis [10]: -VE
Structural based (HCI) [10]: -VE
In vivo DILI ([3]; ref Persson 2013): -VE
In vivo DILI ([3]; ref Tolosa 2012): -VE

C[C@H]1c2cccc(O)c2C(=O)C2=C(O)[C@]3(O)C(=O)C(C(N)=O)=C(O)[C@@H](N(C)C)[C@@H]3[C@@H](O)[C@@H]21 [doxycycline]
Structural based (HCI) [1, 18]: +VE
DILI +VE (5-8), DILI -VE (-4) ([12]; binary in vivo human DILI call, ref Chen 2016): +VE
DILI severity category ([12]; human DILI, LTKB DILIrank category, ref Chen 2016): vLess-DILI-Concern
In vivo DILI ([3]; ref Tolosa 2012): +VE
DILI Score (FDA) (1-8) ([15]; FDA drug labelling score, scale 1-8): 3

CC[C@H](C)C(=O)O[C@H]1C[C@@H](C)C=C2C=C[C@H](C)[C@H](CC[C@@H]3C[C@@H](O)CC(=O)O3)[C@H]21 [lovastatin]
Structural based (HCI) [1, 18]: +VE
Structural based (HCI) [4, 19]: -VE
in vitro data EC2<=1x Cmax [5]: -VE
in vitro data EC20<=2uM [5]: +VE
Structural based (HCI) [2]: -VE

CNCCCC12CCC(c3ccccc31)c1ccccc12 [maprotiline]
Partition Hybrid HRM Score ([14]; In vitro Assay, ref Aleo 2019): +VE
Ro2 Hybrid HRM Score ([14]; In vitro Assay, ref Aleo 2019): +VE
Structural based (HCI) [1, 18]: +VE
DILI +VE (5-8), DILI -VE (-4) ([12]; ref Chen 2016): -VE
DILI severity category ([12]; ref Chen 2016): Ambiguous DILI-concern
Structural based (HCI) [2]: -VE
In vivo DILI ([3]; […]): -VE
In vivo DILI ([3]; ref Tolosa 2012): +VE
In vivo DILI ([3]; ref Xu 2008): -VE

CC1=CC(=O)c2ccccc2C1=O [menadione]
Structural based (HCI) [1, 18]: +VE
Structural based (HCI) [4, 19]: +VE (lowest HCI endpoint IC50 (or in the absence of dose–response < 100 µM) < 30 × total human plasma exposure levels (Cmax.tot))
Cluser analysis [10]: +VE
Structural based (HCI) [10]: +VE
In vivo DILI ([3]; ref O'Brien 2006): -VE
In vivo DILI ([3]; ref Persson 2013): +VE
In vivo DILI ([3]; ref Tolosa 2012): +VE

Cc1ccccc1C(OCCN(C)C)c1ccccc1 (centres unmarked) [orphenadrine]
Structural based (HCI) [1, 18]: +VE
DILI +VE (5-8), DILI -VE (-4) ([12]; ref Chen 2016): -VE
DILI severity category ([12]; ref Chen 2016): vNo-DILI-Concern
hLiMTs ATP <20 x Cmax [16, 20]: -VE
Bayesian Machine Learning [17]: -VE
Structural based (HCI) [2]: -VE
hLiMTs ATP <100uM [8]: -VE
PHH ATP <100uM [9]: -VE
In vivo DILI ([3]; […]): -VE
In vivo DILI ([3]; ref Proctor 2017): -VE
In vivo DILI ([3]; ref Tolosa 2012): +VE
In vivo DILI ([3]; ref Vorrink 2018): -VE
In vivo DILI ([3]; ref Williams 2019): -VE
In vivo DILI ([3]; ref Xu 2008): -VE

O=C1NC(=O)C(c2ccccc2)(c2ccccc2)N1 [phenytoin]
Structural based (HCI) [1, 18]: +VE
DILI +VE (5-8), DILI -VE (-4) ([12]; ref Chen 2016): +VE
DILI severity category ([12]; ref Chen 2016): vMost-DILI-Concern
hLiMTs ATP <20 x Cmax [16, 20]: -VE
Structural based (HCI) [2]: +VE
In vivo DILI ([3]; […]): +VE
In vivo DILI ([3]; ref Tolosa 2012): +VE
In vivo DILI ([3]; ref Vorrink 2018): +VE
In vivo DILI ([3]; ref Xu 2008): +VE
DILI Score (FDA) (1-8) [15]: 3

OC[C@@H](O)[C@@H](O)[C@H](O)[C@@H](O)CO [sorbitol]
Structural based (HCI) [1, 18]: -VE
DILI +VE (5-8), DILI -VE (-4) ([12]; ref Chen 2016): -VE
DILI severity category ([12]; ref Chen 2016): vNo-DILI-Concern
Structural based (HCI) [2]: -VE
In vivo DILI ([3]; ref O'Brien 2006): -VE
In vivo DILI ([3]; ref Tolosa 2012): -VE
In vivo DILI ([3]; ref Xu 2008): -VE

CC(=N)S [thioacetamide]
Structural based (HCI) [1, 18]: -VE
Structural based (HCI) [2]: -VE
In vivo DILI ([3]; ref O'Brien 2006): +VE
In vivo DILI ([3]; ref Tolosa 2012): +VE
In vivo DILI ([3]; ref Xu 2008): +VE

aflatoxin b1
Structural based (HCI) [1]: +VE
hLiMTs ATP <20 x Cmax [16]: +VE (key: +VE: IC20 < 20 × Cmax.tot cut-off)
In vivo DILI ([3]; in vivo): +VE

gentamycin
Structural based (HCI) [1, 18]: -VE
Structural based (HCI) [4, 19]: +VE
in vitro data EC2<=1x Cmax [5]: +VE
in vitro data EC20<=2uM [5]: +VE
In vivo DILI ([3]; […]): -VE
In vivo DILI ([3]; ref O'Brien 2006): -VE
In vivo DILI ([3]; ref Porceddu 2012): +VE
In vivo DILI ([3]; ref Tolosa 2012): -VE
